Results published in ChEMBL document CHEMBL5030507, “Structure-Based Design of a Selective Class I Histone Deacetylase (HDAC) Near-Infrared (NIR) Probe for Epigenetic Regulation Detection in Triple-Negative Breast Cancer (TNBC)” (J Med Chem, 2021).

Tests used:
Histone deacetylase 1 = Histone deacetylase 1 (Homo sapiens, UniProt Q13547); experiment: Inhibition of recombinant human C-terminal FLAG/His-tagged HDAC1 (1 to 482 residues) expressed in Sf9 insect cells using fluorometric substrate measured after 60 mins by FRET assay
Chain of Histone deacetylase 1 (Q13547 whole entry, the tested form may be a part): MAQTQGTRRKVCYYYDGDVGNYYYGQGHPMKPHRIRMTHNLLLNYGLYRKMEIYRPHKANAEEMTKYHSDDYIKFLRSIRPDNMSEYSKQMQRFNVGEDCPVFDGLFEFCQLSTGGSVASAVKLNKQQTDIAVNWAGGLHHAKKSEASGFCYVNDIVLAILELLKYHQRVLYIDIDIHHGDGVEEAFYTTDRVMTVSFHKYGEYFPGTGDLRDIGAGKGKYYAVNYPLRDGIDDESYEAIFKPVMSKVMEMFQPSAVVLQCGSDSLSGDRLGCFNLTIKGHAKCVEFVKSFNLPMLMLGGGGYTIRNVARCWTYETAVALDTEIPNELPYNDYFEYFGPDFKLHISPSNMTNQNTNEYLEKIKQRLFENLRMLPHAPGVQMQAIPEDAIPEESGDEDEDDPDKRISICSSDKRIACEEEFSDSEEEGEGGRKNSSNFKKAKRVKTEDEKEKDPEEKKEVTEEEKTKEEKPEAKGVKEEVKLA

[1] = target: Histone deacetylase 3/Nuclear receptor corepressor 2 (HDAC3/NCoR2) (Homo sapiens, UniProt O15379); experiment: Inhibition of C-terminal His-tagged recombinant human HDAC3 (1 to 428 residues)/N-terminal GST-tagged recombinant human NCoR2 (395 to 489 residues) co-expressed in baculovirus infected Sf9 cells using fluorometric substrate measured after 60 mins by FRET assay
Chain of Histone deacetylase 3/Nuclear receptor corepressor 2 (HDAC3/NCoR2) (O15379 whole entry, the tested form may be a part): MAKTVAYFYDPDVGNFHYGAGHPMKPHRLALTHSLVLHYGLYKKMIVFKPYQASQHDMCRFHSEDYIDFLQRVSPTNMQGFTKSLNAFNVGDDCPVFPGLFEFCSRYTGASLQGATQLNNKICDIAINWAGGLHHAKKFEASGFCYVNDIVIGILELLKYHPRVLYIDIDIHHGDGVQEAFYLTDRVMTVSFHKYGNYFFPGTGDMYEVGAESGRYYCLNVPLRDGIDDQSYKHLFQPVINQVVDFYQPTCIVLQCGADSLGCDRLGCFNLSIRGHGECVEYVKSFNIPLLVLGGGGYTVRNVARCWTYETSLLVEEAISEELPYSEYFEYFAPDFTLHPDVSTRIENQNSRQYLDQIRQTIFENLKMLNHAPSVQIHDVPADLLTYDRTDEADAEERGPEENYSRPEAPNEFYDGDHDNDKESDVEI
Chain of Histone deacetylase 3/Nuclear receptor corepressor 2 (HDAC3/NCoR2) (Q9Y618 whole entry, further chain, the tested form may be a part): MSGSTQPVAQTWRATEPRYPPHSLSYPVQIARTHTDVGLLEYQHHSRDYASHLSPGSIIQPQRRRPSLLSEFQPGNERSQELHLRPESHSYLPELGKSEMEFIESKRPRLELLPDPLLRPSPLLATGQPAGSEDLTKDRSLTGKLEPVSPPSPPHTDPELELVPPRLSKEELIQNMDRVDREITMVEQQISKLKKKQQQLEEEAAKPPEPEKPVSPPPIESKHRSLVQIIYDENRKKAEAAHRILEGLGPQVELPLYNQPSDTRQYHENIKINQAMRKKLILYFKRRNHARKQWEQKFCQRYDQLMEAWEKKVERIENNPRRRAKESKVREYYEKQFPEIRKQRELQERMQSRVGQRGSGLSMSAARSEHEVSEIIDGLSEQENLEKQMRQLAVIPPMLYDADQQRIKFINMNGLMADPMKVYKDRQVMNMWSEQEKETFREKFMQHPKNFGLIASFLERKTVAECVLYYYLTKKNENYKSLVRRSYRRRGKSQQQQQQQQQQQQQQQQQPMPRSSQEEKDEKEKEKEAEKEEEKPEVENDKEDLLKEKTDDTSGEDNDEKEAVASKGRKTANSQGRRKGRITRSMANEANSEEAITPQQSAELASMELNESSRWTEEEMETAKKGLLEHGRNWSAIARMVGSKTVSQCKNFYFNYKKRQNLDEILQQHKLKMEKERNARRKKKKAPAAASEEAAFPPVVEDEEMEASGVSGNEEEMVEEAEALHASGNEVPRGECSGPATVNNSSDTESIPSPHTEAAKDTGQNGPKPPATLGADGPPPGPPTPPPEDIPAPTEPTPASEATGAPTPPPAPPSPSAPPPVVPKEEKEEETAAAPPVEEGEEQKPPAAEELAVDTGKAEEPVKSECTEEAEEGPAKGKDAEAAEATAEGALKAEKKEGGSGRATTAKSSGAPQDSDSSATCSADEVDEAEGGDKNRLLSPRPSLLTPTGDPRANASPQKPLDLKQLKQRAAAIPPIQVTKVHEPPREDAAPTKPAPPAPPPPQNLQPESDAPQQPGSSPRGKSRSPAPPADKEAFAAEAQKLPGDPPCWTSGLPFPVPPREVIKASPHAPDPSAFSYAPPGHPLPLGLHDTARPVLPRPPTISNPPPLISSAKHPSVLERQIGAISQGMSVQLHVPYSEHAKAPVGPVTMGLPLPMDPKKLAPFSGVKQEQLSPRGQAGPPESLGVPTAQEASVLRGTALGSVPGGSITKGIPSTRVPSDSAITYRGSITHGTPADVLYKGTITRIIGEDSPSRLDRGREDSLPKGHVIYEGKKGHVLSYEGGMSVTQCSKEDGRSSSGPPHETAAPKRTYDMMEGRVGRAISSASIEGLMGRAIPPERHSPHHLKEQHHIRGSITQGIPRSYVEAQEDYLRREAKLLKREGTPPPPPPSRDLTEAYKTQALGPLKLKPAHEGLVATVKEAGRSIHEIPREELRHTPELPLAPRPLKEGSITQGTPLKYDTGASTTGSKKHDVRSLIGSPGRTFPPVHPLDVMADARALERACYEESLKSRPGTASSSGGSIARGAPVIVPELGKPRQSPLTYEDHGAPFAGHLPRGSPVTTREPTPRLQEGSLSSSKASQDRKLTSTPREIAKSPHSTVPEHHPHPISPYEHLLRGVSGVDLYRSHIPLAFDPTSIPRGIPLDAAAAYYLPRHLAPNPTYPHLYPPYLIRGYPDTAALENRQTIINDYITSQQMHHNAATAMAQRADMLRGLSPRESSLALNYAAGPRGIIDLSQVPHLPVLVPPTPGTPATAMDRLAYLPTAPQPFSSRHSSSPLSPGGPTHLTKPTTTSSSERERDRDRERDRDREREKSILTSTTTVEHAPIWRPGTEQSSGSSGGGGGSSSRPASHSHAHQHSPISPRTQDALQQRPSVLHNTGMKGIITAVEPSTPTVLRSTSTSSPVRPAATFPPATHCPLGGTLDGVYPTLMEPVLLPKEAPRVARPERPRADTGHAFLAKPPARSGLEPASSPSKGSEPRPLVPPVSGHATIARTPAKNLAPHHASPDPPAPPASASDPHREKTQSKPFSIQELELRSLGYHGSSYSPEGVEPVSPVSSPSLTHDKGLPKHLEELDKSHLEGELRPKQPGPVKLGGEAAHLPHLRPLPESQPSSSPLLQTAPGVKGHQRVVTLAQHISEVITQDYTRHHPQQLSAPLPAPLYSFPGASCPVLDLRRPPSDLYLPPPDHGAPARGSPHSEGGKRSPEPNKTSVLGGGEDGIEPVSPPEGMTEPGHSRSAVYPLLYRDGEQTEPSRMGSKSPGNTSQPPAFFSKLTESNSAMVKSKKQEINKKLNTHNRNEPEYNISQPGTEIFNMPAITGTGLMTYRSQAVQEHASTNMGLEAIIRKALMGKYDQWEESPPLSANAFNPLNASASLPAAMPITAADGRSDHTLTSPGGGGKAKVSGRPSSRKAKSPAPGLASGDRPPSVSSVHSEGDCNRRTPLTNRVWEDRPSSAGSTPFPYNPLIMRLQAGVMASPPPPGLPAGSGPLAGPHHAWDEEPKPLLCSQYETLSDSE

Histone deacetylase 8 = target: T1, Histone deacetylase 8 (Homo sapiens, UniProt Q9BY41); experiment: Inhibition of recombinant human full length C-terminal His-tagged HDAC8 expressed in baculovirus infected Sf9 insect cells using fluorometric substrate measured after 60 mins by FRET assay
T1 sequence (Q9BY41 whole entry): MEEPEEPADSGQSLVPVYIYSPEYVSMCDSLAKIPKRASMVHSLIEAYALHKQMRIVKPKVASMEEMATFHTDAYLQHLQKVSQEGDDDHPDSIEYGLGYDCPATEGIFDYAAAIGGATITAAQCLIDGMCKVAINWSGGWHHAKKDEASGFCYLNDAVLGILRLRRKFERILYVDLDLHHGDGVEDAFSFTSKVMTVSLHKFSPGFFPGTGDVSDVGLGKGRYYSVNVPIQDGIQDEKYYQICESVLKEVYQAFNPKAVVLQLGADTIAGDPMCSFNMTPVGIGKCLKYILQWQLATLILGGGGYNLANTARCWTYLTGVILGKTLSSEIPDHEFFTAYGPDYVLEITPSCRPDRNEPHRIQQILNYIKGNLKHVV

Histone deacetylase 4 = Histone deacetylase 4 (Homo sapiens, UniProt P56524); experiment: Inhibition of recombinant human N-terminal GST-tagged/C-terminal His-tagged HDAC4 (627 to 1084 residues) expressed in baculovirus infected Sf9 insect cells using fluorogenic substrate measured after 60 mins by FRET assay
Chain of Histone deacetylase 4 (P56524 whole entry, the tested form may be a part): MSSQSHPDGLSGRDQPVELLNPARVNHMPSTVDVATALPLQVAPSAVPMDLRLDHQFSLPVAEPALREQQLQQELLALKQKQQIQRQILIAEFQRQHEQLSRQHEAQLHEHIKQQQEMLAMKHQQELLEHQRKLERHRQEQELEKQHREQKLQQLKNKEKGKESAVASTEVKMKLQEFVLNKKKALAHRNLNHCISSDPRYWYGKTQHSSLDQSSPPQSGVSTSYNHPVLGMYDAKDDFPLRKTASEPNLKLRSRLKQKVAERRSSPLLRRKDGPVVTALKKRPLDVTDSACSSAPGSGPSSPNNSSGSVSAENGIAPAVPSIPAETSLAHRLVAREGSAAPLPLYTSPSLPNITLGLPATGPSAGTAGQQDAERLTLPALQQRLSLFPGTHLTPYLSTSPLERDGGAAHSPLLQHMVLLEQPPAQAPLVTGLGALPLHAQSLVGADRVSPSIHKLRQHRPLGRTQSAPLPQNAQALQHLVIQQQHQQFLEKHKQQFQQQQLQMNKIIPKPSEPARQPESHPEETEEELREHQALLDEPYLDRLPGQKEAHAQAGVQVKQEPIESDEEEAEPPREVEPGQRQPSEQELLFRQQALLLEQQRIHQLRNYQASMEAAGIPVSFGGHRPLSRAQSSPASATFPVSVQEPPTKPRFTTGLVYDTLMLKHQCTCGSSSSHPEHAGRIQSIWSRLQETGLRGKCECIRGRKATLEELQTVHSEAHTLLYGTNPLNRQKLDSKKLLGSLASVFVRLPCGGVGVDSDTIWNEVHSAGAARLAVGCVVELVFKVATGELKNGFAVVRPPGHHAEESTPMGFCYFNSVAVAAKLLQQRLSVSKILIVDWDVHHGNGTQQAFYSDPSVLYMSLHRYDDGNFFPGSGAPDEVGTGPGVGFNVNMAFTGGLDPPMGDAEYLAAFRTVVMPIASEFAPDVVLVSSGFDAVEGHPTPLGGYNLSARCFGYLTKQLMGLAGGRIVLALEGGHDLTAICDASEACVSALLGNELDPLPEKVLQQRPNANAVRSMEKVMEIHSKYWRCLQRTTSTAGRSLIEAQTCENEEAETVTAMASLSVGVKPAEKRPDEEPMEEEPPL

[2] = target: T2, Polyamine deacetylase HDAC10 (Homo sapiens, UniProt Q969S8); experiment: Inhibition of recombinant human N-terminal FLAG tagged HDAC10 (2 to 631 residues) expressed in baculovirus infected Sf9 insect cells using fluorogenic substrate measured after 60 mins by FRET assay
T2 sequence (Q969S8 whole entry): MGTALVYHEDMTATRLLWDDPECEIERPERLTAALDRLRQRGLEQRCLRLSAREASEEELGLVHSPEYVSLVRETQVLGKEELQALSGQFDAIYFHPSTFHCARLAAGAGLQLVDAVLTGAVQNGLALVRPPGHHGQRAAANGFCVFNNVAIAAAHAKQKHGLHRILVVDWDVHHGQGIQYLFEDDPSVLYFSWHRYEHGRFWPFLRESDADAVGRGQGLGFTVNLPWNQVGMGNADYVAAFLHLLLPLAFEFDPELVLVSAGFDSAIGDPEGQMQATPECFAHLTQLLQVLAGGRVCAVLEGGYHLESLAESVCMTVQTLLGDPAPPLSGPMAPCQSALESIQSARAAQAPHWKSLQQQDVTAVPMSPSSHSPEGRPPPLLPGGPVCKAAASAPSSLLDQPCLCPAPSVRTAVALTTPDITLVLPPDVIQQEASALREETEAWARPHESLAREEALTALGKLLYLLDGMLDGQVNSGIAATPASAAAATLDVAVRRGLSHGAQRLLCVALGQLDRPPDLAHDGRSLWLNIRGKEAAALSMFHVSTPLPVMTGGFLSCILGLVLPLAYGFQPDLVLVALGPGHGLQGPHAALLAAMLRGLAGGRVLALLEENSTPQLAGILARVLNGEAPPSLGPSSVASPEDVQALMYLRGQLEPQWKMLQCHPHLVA

[3] = Cytotoxicity against human WI-38 cells assessed as cell growth inhibition incubated for 72 hrs by CCK8 assay; assay type: cell-based

IC50 (Histone deacetylase 1): 5.8 nM
IC50 [1]: 10.3 nM
IC50 (Histone deacetylase 8): > 10 µM
IC50 (Histone deacetylase 4): > 10 µM
IC50 [2]: > 10 µM
SMILES: C/C=C1\NC(=O)c2csc(n2)CNC(=O)C[C@@H](/C=C/CCSSCCCCCCC)OC(=O)[C@H](CCCCN)NC1=O
GI50 at 72 h [3]: 2320 nM
